Measurements reported in ChEMBL document CHEMBL4311972, “Discovery of a benzothiophene-flavonol halting miltefosine and antimonial drug resistance in Leishmania parasites through the application of medicinal chemistry, screening and genomics” (Eur J Med Chem, 2019).
Active and inactive are the calls of the source. The rule behind the calls is not given here.

Tests used:
Trypanosoma brucei = test: Antitrypanosomal activity against Trypanosoma brucei bloodstream form assessed as parasite growth inhibition incubated for 72 hrs by resazurin dye based assay; type: functional, organism-based; conditions: Trypanosoma brucei, 72 h; read-out: EC50
CYP2C9 = CYP2C9 (Homo sapiens, UniProt P11712); test: Inhibition of human microsomal CYP2C9 expressed in baculovirus infected insect cells at 10 uM using luciferin-H as substrate preincubated with enzyme/substrate mixture for 30 mins followed by further incubation with NADPH for 30 mins by CYP450 luciferase Glo assay relative to control; type: ADME; conditions: probe luciferin-H
Sequence of CYP2C9 (P11712 whole entry): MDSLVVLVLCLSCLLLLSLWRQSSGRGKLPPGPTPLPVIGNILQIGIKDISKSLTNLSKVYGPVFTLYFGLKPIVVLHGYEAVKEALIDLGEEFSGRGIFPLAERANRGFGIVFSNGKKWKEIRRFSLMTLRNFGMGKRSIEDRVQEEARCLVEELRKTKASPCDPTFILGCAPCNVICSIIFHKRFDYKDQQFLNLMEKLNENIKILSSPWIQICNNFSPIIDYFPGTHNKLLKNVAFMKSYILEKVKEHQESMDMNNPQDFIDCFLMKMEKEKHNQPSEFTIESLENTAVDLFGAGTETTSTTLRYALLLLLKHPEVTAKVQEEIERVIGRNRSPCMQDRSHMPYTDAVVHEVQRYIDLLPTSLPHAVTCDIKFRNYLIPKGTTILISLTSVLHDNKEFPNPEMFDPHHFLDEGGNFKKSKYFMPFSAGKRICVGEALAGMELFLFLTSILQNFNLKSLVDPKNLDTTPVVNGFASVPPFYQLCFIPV

CYP2D6 = CYP2D6 (Homo sapiens, UniProt P10635); test: Inhibition of human microsomal CYP2D6 expressed in baculovirus infected insect cells at 10 uM using luciferin-ME as substrate preincubated with enzyme/substrate mixture for 30 mins followed by further incubation with NADPH for 30 mins by CYP450 luciferase Glo assay relative to control; type: ADME; conditions: probe luciferin-ME
Sequence of CYP2D6 (P10635 whole entry): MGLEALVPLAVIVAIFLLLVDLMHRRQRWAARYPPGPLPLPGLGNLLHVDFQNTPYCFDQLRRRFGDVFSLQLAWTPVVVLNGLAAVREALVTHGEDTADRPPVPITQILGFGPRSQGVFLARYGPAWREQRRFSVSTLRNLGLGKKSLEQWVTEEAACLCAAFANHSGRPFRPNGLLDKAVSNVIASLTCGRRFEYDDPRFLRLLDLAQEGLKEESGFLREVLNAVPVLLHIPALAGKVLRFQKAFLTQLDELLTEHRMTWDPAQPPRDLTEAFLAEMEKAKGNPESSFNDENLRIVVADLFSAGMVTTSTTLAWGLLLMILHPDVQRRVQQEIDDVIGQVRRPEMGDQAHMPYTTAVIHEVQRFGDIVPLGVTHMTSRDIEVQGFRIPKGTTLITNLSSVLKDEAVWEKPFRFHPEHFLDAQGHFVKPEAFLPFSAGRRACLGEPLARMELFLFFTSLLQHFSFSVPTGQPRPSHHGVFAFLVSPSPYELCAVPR

Leishmania major = test: Antileishmanial activity against promastigote form of Leishmania major assessed as parasite growth inhibition; type: functional, organism-based
Leishmania infantum [1] = test: Antileishmanial activity against Leishmania infantum amastigotes infected in Syrian hamster assessed as parasite load within liver at 40 mg/kg/day, po for 10 days formulated with 8% v/v DMSO (reference value: 5333333.333 +/- 3011090.611/g); type: functional
[2] = Half-life in BALB/c mouse at 20 mg/kg, po measured upto 72 hrs by snapshot method; type: ADME, organism-based; conditions: in vivo
Leishmania infantum [3] = test: Antileishmanial activity against luciferase expressing intracellular amastigote stage of Leishmania infantum infected in human THP1 cells assessed as parasite growth inhibition measured after 48 to 72 hrs by steady-glo luciferase assay; type: functional, organism-based; conditions: Leishmania infantum, THP-1; read-out: EC50
Trypanosoma cruzi [4] = test: Antitrypanosomal activity against intracellular amastigote stage of Trypanosoma cruzi ARMA 13 cl1 infected in human U2OS cells measured after 96 hrs by DRAQ5 dye based microscopic analysis; type: functional, organism-based
[5] = Cytotoxicity against human A549 cells assessed as cell growth at […] incubated for 48 hrs by Celltiter-Glo luminescence assay relative to control; type: cell-based; design: dose or concentration left out as unconfirmed; conditions: read-out: Activity
786-0 = test: Mitochondrial toxicity in human 786-0 cells at 10 uM incubated with compound for 6 hrs followed by incubation with MitoTracker Red chloromethyl-X-rosamine dye for 45 mins by imaging analysis; type: cell-based; conditions: 786-0, 6 h
hERG (KCNH2) = hERG (KCNH2) (Homo sapiens, UniProt Q12809); test: Inhibition of human ERG at 10 uM incubated for 2 hrs by fluorescence polarization assay relative to control
Sequence of hERG (KCNH2) (Q12809 whole entry): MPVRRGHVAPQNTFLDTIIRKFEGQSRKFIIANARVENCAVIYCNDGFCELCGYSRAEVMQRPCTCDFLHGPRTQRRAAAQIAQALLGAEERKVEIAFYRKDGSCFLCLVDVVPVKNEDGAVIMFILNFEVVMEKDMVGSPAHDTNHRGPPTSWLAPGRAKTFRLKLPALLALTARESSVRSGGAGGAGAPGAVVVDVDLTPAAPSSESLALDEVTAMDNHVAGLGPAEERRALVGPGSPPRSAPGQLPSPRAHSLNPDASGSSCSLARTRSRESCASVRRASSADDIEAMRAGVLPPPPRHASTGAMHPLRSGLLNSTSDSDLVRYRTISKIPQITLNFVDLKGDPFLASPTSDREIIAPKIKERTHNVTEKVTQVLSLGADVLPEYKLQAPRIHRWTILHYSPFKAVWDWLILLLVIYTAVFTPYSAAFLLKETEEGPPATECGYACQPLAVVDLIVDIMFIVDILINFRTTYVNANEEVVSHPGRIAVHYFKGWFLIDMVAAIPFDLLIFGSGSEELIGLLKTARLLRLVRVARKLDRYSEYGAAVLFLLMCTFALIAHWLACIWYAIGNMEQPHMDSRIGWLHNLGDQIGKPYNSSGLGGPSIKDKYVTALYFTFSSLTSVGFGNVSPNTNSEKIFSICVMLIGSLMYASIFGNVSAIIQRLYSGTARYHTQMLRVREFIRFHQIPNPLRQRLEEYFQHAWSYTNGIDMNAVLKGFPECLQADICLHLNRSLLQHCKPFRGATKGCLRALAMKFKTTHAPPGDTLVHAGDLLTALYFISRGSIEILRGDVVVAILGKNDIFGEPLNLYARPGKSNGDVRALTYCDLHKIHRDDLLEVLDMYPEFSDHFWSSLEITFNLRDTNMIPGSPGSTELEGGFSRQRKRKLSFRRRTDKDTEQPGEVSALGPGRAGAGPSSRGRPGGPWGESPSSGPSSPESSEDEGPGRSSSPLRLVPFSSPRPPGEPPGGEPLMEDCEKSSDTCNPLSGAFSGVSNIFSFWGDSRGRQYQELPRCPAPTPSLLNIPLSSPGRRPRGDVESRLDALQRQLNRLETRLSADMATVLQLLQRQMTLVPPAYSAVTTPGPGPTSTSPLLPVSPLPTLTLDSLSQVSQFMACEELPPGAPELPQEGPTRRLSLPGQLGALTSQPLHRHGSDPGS

CYP3A4 = CYP3A4 (Homo sapiens, UniProt P08684); test: Inhibition of human microsomal CYP3A4 expressed in baculovirus infected insect cells at 10 uM using luciferin-IPA as substrate preincubated with enzyme/substrate mixture for 30 mins followed by further incubation with NADPH for 30 mins by CYP450 luciferase Glo assay relative to control; type: ADME; conditions: probe luciferin-IPA
Sequence of CYP3A4 (P08684 whole entry): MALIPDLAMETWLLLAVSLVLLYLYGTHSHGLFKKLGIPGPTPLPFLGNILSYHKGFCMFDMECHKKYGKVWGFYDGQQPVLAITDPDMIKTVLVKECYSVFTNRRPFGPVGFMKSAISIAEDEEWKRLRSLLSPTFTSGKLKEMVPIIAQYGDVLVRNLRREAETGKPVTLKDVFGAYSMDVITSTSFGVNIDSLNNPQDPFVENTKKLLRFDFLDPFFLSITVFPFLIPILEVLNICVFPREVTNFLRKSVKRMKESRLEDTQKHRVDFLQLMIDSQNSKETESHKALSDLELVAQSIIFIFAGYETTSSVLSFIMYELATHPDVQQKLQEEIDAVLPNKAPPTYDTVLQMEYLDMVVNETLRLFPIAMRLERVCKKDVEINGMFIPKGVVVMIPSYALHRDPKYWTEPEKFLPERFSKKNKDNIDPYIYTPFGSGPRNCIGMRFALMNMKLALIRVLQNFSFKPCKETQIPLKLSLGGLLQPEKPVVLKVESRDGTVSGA

Albumin [6] = biological target: T1, Albumin (Homo sapiens, UniProt P02768); test: Binding affinity to human serum albumin by fluorescence based assay; type: ADME
T1 sequence (P02768 whole entry): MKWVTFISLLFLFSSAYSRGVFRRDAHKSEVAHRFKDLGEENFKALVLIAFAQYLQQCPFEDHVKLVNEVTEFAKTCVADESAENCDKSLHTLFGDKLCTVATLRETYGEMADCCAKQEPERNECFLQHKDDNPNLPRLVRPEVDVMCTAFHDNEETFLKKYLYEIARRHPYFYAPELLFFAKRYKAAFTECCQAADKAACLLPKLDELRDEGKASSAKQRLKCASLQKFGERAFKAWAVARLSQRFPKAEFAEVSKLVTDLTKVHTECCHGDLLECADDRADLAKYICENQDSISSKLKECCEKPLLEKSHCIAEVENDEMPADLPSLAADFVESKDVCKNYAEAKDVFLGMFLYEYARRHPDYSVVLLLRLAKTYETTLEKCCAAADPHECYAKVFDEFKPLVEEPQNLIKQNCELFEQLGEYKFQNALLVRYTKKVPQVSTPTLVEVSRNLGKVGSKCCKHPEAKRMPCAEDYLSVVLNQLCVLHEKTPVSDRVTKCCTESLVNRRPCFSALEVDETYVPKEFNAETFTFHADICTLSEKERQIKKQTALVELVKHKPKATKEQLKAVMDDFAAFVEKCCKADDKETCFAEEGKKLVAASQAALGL

CYP2C19 = CYP2C19 (Homo sapiens, UniProt P33261); test: Inhibition of human microsomal CYP2C19 expressed in baculovirus infected insect cells at 10 uM using luciferin-H EGE as substrate preincubated with enzyme/substrate mixture for 30 mins followed by further incubation with NADPH for 30 mins by CYP450 luciferase Glo assay relative to control; type: ADME; conditions: probe luciferin-H EGE
Sequence of CYP2C19 (P33261 whole entry): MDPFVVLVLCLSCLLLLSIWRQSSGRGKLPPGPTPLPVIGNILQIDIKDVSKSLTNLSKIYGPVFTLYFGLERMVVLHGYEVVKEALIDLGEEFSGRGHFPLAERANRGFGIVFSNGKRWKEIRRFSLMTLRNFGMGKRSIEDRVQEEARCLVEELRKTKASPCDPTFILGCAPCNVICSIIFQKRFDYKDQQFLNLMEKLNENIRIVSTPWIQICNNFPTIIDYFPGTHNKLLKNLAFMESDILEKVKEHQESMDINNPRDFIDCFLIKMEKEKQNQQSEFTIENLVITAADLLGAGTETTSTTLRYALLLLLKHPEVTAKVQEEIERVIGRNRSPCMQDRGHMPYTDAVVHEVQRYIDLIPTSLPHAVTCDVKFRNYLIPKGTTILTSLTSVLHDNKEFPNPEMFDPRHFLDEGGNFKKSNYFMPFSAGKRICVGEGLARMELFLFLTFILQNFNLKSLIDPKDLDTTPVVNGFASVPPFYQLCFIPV

[7] = Thermodynamic solubility of the compound in water at >50 uM; type: physicochemical; conditions: buffer
[8] = Toxicity in Syrian hamster infected with Leishmania infantum BCN150 promastigotes assessed as liver lesions at 40 mg/kg/day, po for 10 days formulated with 8% v/v DMSO measured under necropsy; type: organism-based, Mesocricetus auratus; conditions: in vivo, 240 h
[9] = Chemical stability of compound in PBS assessed as decrease in absorbance at 20 uM at pH 8 measured after air bubbling by UV-vis spectrophotometry analysis; type: physicochemical; conditions: buffer, pH 8, 20 µM
Leishmania donovani [10] = test: Antileishmanial activity against Leishmania donovani BPK091 promastigotes transfected with Leishmania donovani BPK190 genomic cosmid DNA assessed as parasite growth at IC50 concentration incubated with compound for 3 days under selective pressure and selection cycle repeated 10 times and measured at 37 days of selection relative to control; type: functional
Trypanosoma cruzi [11] = test: Antitrypanosomal activity against intracellular amastigote stage of Trypanosoma cruzi Y infected in human U2OS cells measured after 96 hrs by DRAQ5 dye based microscopic analysis; type: functional, organism-based
Trypanosoma cruzi [12] = test: Antitrypanosomal activity against intracellular amastigote stage of Trypanosoma cruzi CL Brener infected in human U2OS cells measured after 96 hrs by DRAQ5 dye based microscopic analysis; type: functional, organism-based
Trypanosoma cruzi [13] = test: Antitrypanosomal activity against intracellular amastigote stage of Trypanosoma cruzi 92.80 cl2 infected in human U2OS cells measured after 96 hrs by DRAQ5 dye based microscopic analysis; type: functional, organism-based
Albumin [14] = biological target: T1, Albumin; test: Binding affinity to human serum albumin in phosphate buffer assessed as decrease in emission intensity at 450 nm at 5 uM measured at pH 8 at albumin concentration of 0.6 +/-0.1 uM by fluorescence emission spectrum analysis; type: ADME; design: scale not given: the % may be the effect or the level left; conditions: isolated protein
Trypanosoma cruzi [15] = test: Antitrypanosomal activity against Trypanosoma cruzi strain Y trypomastigotes infected in human HG39 cells by TaqMan probe based RT-PCR analysis; type: functional, organism-based
Trypanosoma cruzi [16] = test: Antitrypanosomal activity against intracellular amastigote stage of Trypanosoma cruzi Silvio X10/1 infected in human U2OS cells measured after 96 hrs by DRAQ5 dye based microscopic analysis; type: functional, organism-based
Leishmania donovani [17] = test: Antileishmanial activity against promastigote form of Leishmania donovani assessed as parasite growth inhibition; type: functional, organism-based
CYP1A2 = biological target: T2, CYP1A2 (Homo sapiens, UniProt P05177); test: Inhibition of human microsomal CYP1A2 expressed in baculovirus infected insect cells at 10 uM using luciferin-1A2 as substrate preincubated with enzyme/substrate mixture for 30 mins followed by further incubation with NADPH for 30 mins by CYP450 luciferase Glo assay relative to control; type: ADME; conditions: probe luciferin-1A2
T2 sequence (P05177 whole entry): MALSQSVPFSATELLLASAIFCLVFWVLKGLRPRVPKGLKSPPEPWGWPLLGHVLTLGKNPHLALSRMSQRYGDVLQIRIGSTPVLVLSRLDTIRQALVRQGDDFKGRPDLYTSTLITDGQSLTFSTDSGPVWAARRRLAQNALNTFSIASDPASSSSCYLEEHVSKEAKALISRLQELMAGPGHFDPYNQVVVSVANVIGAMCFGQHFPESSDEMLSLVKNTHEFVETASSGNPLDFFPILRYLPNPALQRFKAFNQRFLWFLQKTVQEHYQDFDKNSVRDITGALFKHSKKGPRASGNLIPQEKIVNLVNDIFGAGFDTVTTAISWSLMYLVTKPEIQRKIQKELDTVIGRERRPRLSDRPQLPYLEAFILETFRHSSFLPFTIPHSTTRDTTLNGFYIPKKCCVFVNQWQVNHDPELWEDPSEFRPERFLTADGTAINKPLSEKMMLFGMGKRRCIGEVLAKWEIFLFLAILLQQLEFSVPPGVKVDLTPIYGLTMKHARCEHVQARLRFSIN

[18] = Toxicity in Syrian hamster infected with Leishmania infantum BCN150 promastigotes assessed as liver lesions at 20 mg/kg/day, po for 10 days; type: organism-based, Mesocricetus auratus; conditions: in vivo, 240 h
[19] = Toxicity in Syrian hamster infected with Leishmania infantum BCN150 promastigotes assessed as dizziness at 20 mg/kg/day, po for 10 days measured daily; type: organism-based, Mesocricetus auratus; conditions: in vivo, 240 h

In the case of `COc1ccc2oc(-c3csc4ccccc34)c(O)c(=O)c2c1`, the EC50 (Trypanosoma brucei) is reported as 0.8 µM, the inhibition at 0.5 h, 10 µM (CYP2C9) is reported as -10% and the inhibition at 0.5 h, 10 µM (CYP2D6) is reported as 26.2%. The EC50 (Leishmania major) was 6.7 µM, the Activity (Leishmania infantum [1]) was 4285714.286 g⁻¹ and the half-life [2] was 46.9 h. For the same compound, the EC50 (Leishmania infantum [3]) was 1.88 µM, the EC50 (Trypanosoma cruzi [4]; ARMA 13 cl1, U2OS) was 1.2 µM and the viability at 48 h [5] was 3.19%. The Activity (786-0) was -22.85%, the inhibition at 2 h, 10 µM (hERG (KCNH2)) was 32% and the inhibition at 0.5 h, 10 µM (CYP3A4) was 23.3%. For the same compound, the Kd (Albumin [6]) was less than 10 µM, the inhibition at 0.5 h, 10 µM (CYP2C19) was -6.32% and the Therm_solubility [7] was “Insoluble”. For the same compound, the Activity [8] was “Non-Toxic”, the Stability [9] was “Unstable” and the Activity (Leishmania donovani [10]) was greater than 50%. It also gave an EC50 (Trypanosoma cruzi [11]) of 0.9 µM, an EC50 (Trypanosoma cruzi [12]) of 0.6 µM and an EC50 (Trypanosoma cruzi [13]; 92.80 cl2, U2OS) of 0.7 µM. The Activity (Albumin [14]) was 50%, the EC50 (Trypanosoma cruzi [15]) was 7.5 µM and the EC50 (Trypanosoma cruzi [16]; Silvio X10/1, U2OS) was 0.3 µM. The EC50 (Leishmania donovani [17]) was 3.4 µM and the inhibition at 0.5 h, 10 µM (CYP1A2) was 99.7%.
With `CCCCCCCCCCCCCCCCOP(=O)([O-])OCC[N+](C)(C)C` [MILTEFOSINE] the EC50 (Trypanosoma brucei) was 34 µM, the inhibition at 0.5 h, 10 µM (CYP2D6) was 30.8% and the inhibition (Leishmania major) was “Active”. For the same compound, the EC50 (Leishmania infantum [3]) was 2.51 to 3.2 µM, the inhibition (Trypanosoma cruzi [4]) was “Active” and the viability at 48 h [5] was 95.8%. For the same compound, the Activity (786-0) was 3.4%, the inhibition at 2 h, 10 µM (hERG (KCNH2)) was -16.9% and the Activity [18] was “Non-Toxic”. For the same compound, the inhibition at 0.5 h, 10 µM (CYP3A4) was 8.4%, the inhibition at 0.5 h, 10 µM (CYP2C19) was 7.9% and the Therm_solubility [7] was “Insoluble”. For the same compound, the Activity (Leishmania donovani [10]) was greater than 50%, the inhibition (Trypanosoma cruzi [11]) was “Active” and the inhibition (Trypanosoma cruzi [12]) was “Active”. The inhibition (Trypanosoma cruzi [13]) was “Active”, the EC50 (Trypanosoma cruzi [15]) was 12.5 µM and the inhibition (Trypanosoma cruzi [16]) was “Active”. The EC50 (Leishmania donovani [17]) was 9 µM, the Activity [19] was “Toxic” and the inhibition at 0.5 h, 10 µM (CYP1A2) was -20%.
